From US20080249043A1, “Methods and Compositions Involving Protein Kinase C-Delta” (priority 2004, published 2008)
≈ marks a conversion by molar mass, not a printed value. Residues, ends and D or L forms follow the SMILES beside them. *: point of attachment. Cbz = O=C(OCc1ccccc1)*; CH2F = FC*

Columns and labels:
U937 cells = test: TUNEL assay of apoptosis in U937 cells; type: cell-based; settings: for TUNEL positivity, time course: 50 ng/ml bortezomib
Method: […] Cells were harvested and fixed for TUNEL assays. The percentages of the TUNEL positive cells are indicated.
(§1) U937 cells were grown in RPMI with 10% fetal bovine serum and L-glutamine. Bortezomib was from Millennium Pharmaceutical Corp. (Cambridge, Mass.). Rottlerin was from Sigma (St. Louis, Mo.). PKC-δ monoclonal antibody was from BD Transduction Laboratories (San Jose, Calif.). Boc-D(Ome)-FMK (BAF) and Go6976 were from Calbiochem (San Diego, Calif.). The TUNEL assay (terminal deoxynucleotidyltransferase-mediated dUTP-biotin nick end labeling) was from Roche (Switzerland). Subcellular fractionation and western blotting were performed as described (Chen Jet al. Mol Cancer Ther. 2002;1:961-967).

PKC-δ = test: Western blotting and subcellular fractionation for PKC-δ in U937 cells; type: cell-based
Method: U937 cells were treated with PMA (200 nM) or bortezomib (100 ng/ml) for 2 and 4 hours and cells were harvest for western blotting with antibody against PKC-δ. Same blot was probed with actin antibody as loading controls. […] U937 cells were treated with various concentrations of bortezomib and cells were subjected to subcellular fractionation to isolate mitochondria and cytoplasm. The whole cell lysates and fractions were analyzed with antibody against PKC-δ. […] U937 cells were treated with bortezomib (50 ng/ml) and/or caspase inhibitor BAF (30 μM) for 16 hours. Whole cell lysates were analyzed by western blotting with the PKC-δ antibody. […] Cells were treated with PMA (200 nM) for 6, 9 and 12 hours and subjected to subcellular fractionation. Western blot was probed with the PKC-δ antibody. M: mitochondria; C: cytoplasm.
as §1

[1] = monomeric boronic acid; pH range of 2-6.5; cited from earlier work
HeLa cells [2] = test: Apoptosis by PI staining and flow cytometry (subG1 population) in HeLa cells; type: cell-based; settings: HeLa cells, 50 μM Z-VAD or 5 μM CsA 30 min, then AD198 16 h
Method: Cell culture, transfection and treatment—HeLa cells were cultured in Dulbecco's modified Eagle's medium (DMEM) containing 10% fetal bovine serum, 2 mM L-glutamine and penicillin (100 units/ml)-streptomycin (100 μg/ml) at 37° C. in a humidified 5% CO2 atmosphere. HeLa cells at 90% confluence were transfected with different mammalian expression vectors using Lipofectamin 2000 according to the manufacturer's protocol (Invitrogen Inc., Carlsbad, Calif.). At 24 h or 48 h after transfection, cells were treated with 1:100 dilution of AD198 that was dissolved in dimethyl sulfoxide (DMSO). For down-regulation of PLS3, HeLa cells at 50% confluence were transfected with siRNA against PLS3 or a scrambled control. At 48 h, cells were treated with AD198 for 16 h and harvested for flow cytometry. The whole cell lysate was extracted for analysis with Western blotting.
Analysis of apoptosis and determination of the transmembrane potential in mitochondria—Cell death was quantified by propidium iodide (PI) staining, followed by flow cytometry (Becton-Dickinson). HeLa cells were fixed in 0.5 ml cold 70% ethanol at −20° C. overnight. Cell pellet were resuspended in 300 μl of PBS containing 0.025 mg/ml PI, 0.05% Triton X-100, 0.1 mg/ml RNase A and incubated at room temperature for 30 min. The DNA content was evaluated by FACScan. For mitochondrial potential analysis, HeLa cells were incubated with MitoTracker Green at 37° C. for 20 min. The cells were collected and washed with PBS and analyzed by FACScan.
Cell culture, transfection, selection and treatment—HeLa cells were cultured in Dulbecco's modified Eagle's medium (DMEM) with 10% fetal bovine serum, 2 mM L-glutamine, 100 units/ml penicillin and 100 μg/ml streptomycin at 37° C. HeLa cells at 90% confluence were transfected with different mammalian expression vectors or siRNA using Lipofectamin 2000 according to the manufacturer's protocol (Invitrogen Inc., Carlsbad, Calif.). At 48 h after transfection, cells were incubated with 5 μM AD198 or dimethyl sulfoxide (DMSO) for 4 h or 16 h. After transfection, cells were selected with 1 mg/ml G418 for 2 wk. After corresponding mock-transfected cells were killed by G418, the concentration of G418 was decreased to 0.5 mg/ml and maintained for another 2 wk. The whole cell lysates or subcellular fractions were extracted for Western blotting analysis (Liu et al. (2003)).
Analysis of apoptosis—HeLa cells were harvested and fixed in 70% ethanol at −20° C. overnight. Cells were then washed with PBS and stained with 0.025 mg/ml propidium iodide (PI), 0.05% Triton X-100, 0.1 mg/ml RNase A for 30 min at room temperature. The DNA content was analyzed by FACScan (Becton-Dickinson), and the subG0/G1 population was used to represent apoptosis.

PLS3 = PLS3 threonine phosphorylation: Ni-bead pulldown of His-tagged PLS3, Western blot with PT antibody, HeLa cells; type: cell-based; settings: HeLa cells, AD198 (5 μM) along with Z-VAD or CsA, 2 h
Method: Pulldown of His-tagged proteins from transfected HeLa cells—Transfected HeLa cells were washed with ice-cold phosphate-buffered saline (PBS) and incubated in the lysis buffer (50 mM NaH2PO4, 500 mM NaCl, 20 mM imidazole, 1% Triton X-100, 20 mM 2-mercaptoethanol, pH8.0) for 5 min and sonicated briefly on ice. The lysates were centrifuged at 10,000×g for 10 min at 4° C. The supernatant was saved and the protein concentration was measured with the Bio-Rad protein assay (Bio-Rad Laboratories, Hercules, Calif.) and adjusted to same concentrations for each sample. The supernatants were incubated with Ni-beads on a shaker for 2 h at 4° C. Beads were then pelleted at 800×g for 2 min at 4° C. and washed with ice-cold wash buffer (50 mM NaH2PO4, 500 mM NaCl, 20 mM imidazole, 1% Triton X-100, pH8.0) for five times. Beads were resuspended in SDS sample buffer and analyzed by Western blotting.
Western blot analysis—Equal amounts of protein were analyzed by 10% SDS-PAGE and electrotransferred to Immobilon-P membranes (Millipore Corporation, Bedford, Mass.). Monoclonal PKC-δ, PT, and β-actin and polyclonal VDAC antibodies were used at 1:1,000 and polyclonal PLS3 antibody was used at 1:2,000 for immunoblotting. Secondary anti-mouse or anti-rabbit antibodies conjugated with horseradish peroxidase were used at 1:2,000 and incubated with the membrane for 1 h at room temperature. […]

HeLa cells [3] = test: Mitochondrial potential by MitoTracker Green and flow cytometry in HeLa cells; type: cell-based; settings: 50 μM Z-VAD or 5 μM CsA 30 min, then AD198 16 h
Method: Cells were incubated with MitoTracker Green at 37° C. for 20 min followed by flow cytometry analysis. The histogram represents the means±standard deviations from three independent experiments.

[4] = U937 cells, 2 and 4 hours, PMA 200 nM, bortezomib 100 ng/ml
[5] = U937 cells, bortezomib 16 hours

In the case of `Cn1c2ccccc2c2c3c(c4c5ccccc5n(CCC#N)c4c21)CNC3=O` [Go6976], the “effect on bortezomib-induced apoptosis (TUNEL)” value (U937 cells; Go6976 (200 nM) with bortezomib, 16 hours) was “could not prevent bortezomib-induced apoptosis”.
In the case of `CC(=O)c1c(O)c(C)c(O)c(Cc2c(O)c3c(c(C(=O)/C=C/c4ccccc4)c2O)OC(C)(C)C=C3)c1O` [rottlerin], the “TUNEL positive cells with addition of rottlerin” value (shortened to “TUNEL positive cells”) (U937 cells; bortezomib 5 ng/ml + rottlerin (10 μM), 16 hours) was 4.35%, the “TUNEL positive cells” value (U937 cells; bortezomib 10 ng/ml + rottlerin (10 μM), 16 hours) was 8.55% and the “TUNEL positive cells” value (U937 cells; bortezomib 50 ng/ml + rottlerin (10 μM), 16 hours) was 33.07%.
In the case of `CC(C)C[C@H](NC(=O)[C@H](Cc1ccccc1)NC(=O)c1cnccn1)B(O)O` [bortezomib, [(1R)-3-methyl-1-[[(2S)-1-oxo-3-phenyl-2-[(pyrazinylcarbonyl)amino]propyl]amino]butyl] boronic acid], the “TUNEL positivity, time course” value (U937 cells; 6 hours) was “did not become TUNEL positive”, the “TUNEL positivity, time course” value (U937 cells; 16 h) was “strongly positive” and the IC50 (U937 cells; Homo sapiens, U-937, U937 cells) was 0.01 to 0.05 µg/mL (≈ 0.026 to 0.13 µM). The “concentration at which cells became TUNEL positive” value (U937 cells; U937 cells) was 5 ng/mL, the “apoptosis by TUNEL assays” value (U937 cells; bortezomib 5 ng/ml, 16 hours) was 8.02% and the “apoptosis by TUNEL assays” value (U937 cells; bortezomib 10 ng/ml, 16 hours) was 19.85%. For the same compound, the “apoptosis by TUNEL assays” value (U937 cells; bortezomib 50 ng/ml, 16 hours) was 76.07%, the PKC-δ protein level (PKC-δ; [4]) was “induced an increase of PKC-δ” and the “32 kD PKC-δ fragment” value (PKC-δ; [5]) was “new band at 32 kD”. For the same compound, the PKC-δ protein level (PKC-δ; [5]) was “the level of PKC-δ decreased” and the solubility in water [1] was 3300 to 3800 µg/mL.
In the case of `CC(NC(=O)C(NC(=O)OCc1ccccc1)C(C)C)C(=O)NC(CC(=O)O)C(=O)CF` (stereo not drawn) [Z-VAD] (Cbz-Val-Ala-Asp-CH2F; configuration not given here), the “effect on AD198-induced apoptosis” value (HeLa cells [2]) was “suppressed”, the “effect on AD198-induced threonine phosphorylation of PLS3” value (PLS3) was “not affected” and the “effect on AD198-induced mitochondrial permeability transition / loss of mitochondrial potential” value (HeLa cells [3]) was “could not block”.
In the case of `COC(=O)CC(NC(=O)OC(C)(C)C)C(=O)CF` (stereo not drawn) [BAF, Boc-D(Ome)-FMK], the “effect on bortezomib-induced 32 kD PKC-δ band” value (PKC-δ; bortezomib (50 ng/ml) and BAF (30 μM), 16 hours) was “disappearance of this 32 kD band”.
For `CCCCCCCCCCCCCC(=O)O[C@@H]1[C@@H](C)[C@@]2(O)[C@@H](C=C(CO)C[C@]3(O)C(=O)C(C)=C[C@@H]23)[C@@H]2C(C)(C)[C@]12OC(C)=O` [PMA], the PKC-δ protein level (PKC-δ; [4]) was “down-regulated PKC-δ” and the “PKC-δ localization after subcellular fractionation” value (PKC-δ; U937 cells, PMA (200 nM) 6, 9 and 12 hours) was “full-length PKC-δ and its degradation products in mitochondria”.
